# Like-named read-outs stand apart in the source and are kept apart here.
# Molecular target: CXCR2 (Homo sapiens (Human), UniProt P25025)
# Assay: Inhibition of GROα-mediated intracellular calcium release in human neutrophils (FLIPR-3 Ca2+ mobilization)
# Format: cell-based
# Settings: read-out: IC50
# Procedure: In Tables 1-5, the IC50 or EC50 values were determined using the following assay. This assay measures intracellular calcium release via fluorescence as an indication of CXCR2 receptor activation by the physiologic agonist GROα. The assay is a Ca^2+ mobilization assay that measures changes in intracellular Ca^2+ with a FlexStation II scanning fluorometer using a FLIPR-3 Calcium Assay Kit (Molecular Devices, Sunnyvale, Calif.). The procedure is as follows:
# 1. Human neutrophils were suspended in HBSS^− (without Ca^2+ and Mg^2+) containing 10 mM HEPES and FLIPR Calcium 3 dye (3.1×10^7 cells in total volume 1.7 mL).
# 2. […] As controls, 2 μL of DMSO (1% final concentration) were added to other 2 tubes.
# 3. Cells were incubated for 30 min at 37° C.
# 4. After dye loading, tubes were centrifuged at 6,000 rpm for 1 min, supernatant was removed and cell pellet was re-suspended in 200 μL of HBSS^+ (with Ca^2+ and Mg^2+) containing 10 mM HEPES.
# 5. The compound or DMSO (control) was added again at the same concentrations that were used during cell loading.
# 6. The cell suspension was aliquoted into a 96-well Reading Plate (Corning) in a volume of 90 μL (10^5 cells/well). The Compound Plate contained physiologic agonist (GROα in HBSS^−) or HBSS^− (control).
# 9. The maximum change in fluorescence, expressed in arbitrary units over baseline (Max-Min) was used to determine the GROα response. […] Therapeutic Activity
# Briefly, human neutrophils were suspended in HBSS^− (without Ca^2+ and Mg^2+) containing 10 mM HEPES and FLIPR Calcium 3 dye (3.1×10^7 cells in total volume 1.7 mL). […] As controls, 2 μL of DMSO (1% final concentration) were added to 2 other tubes. Cells were incubated for 30 min at 37° C. After dye loading, tubes were centrifuged at 6,000 rpm for 1 min, supernatant was removed and the cell pellet was re-suspended in 200 μL of HBSS^+ (with Ca^2+ and Mg^2+) containing 10 mM HEPES. The test compound or DMSO (control) was added again at the same concentrations that were used during cell loading. The cell suspension was aliquoted into a 96-well Reading Plate (Corning) in a volume of 90 μL (10^5 cells/well). The Compound Plate contained agonist (GROα in HBSS^−) or HBSS^− (control).
# The maximum change in fluorescence, expressed in arbitrary units over baseline (Max-Min), was used to determine the GROα response.
# Chain of CXCR2 (P25025 whole entry): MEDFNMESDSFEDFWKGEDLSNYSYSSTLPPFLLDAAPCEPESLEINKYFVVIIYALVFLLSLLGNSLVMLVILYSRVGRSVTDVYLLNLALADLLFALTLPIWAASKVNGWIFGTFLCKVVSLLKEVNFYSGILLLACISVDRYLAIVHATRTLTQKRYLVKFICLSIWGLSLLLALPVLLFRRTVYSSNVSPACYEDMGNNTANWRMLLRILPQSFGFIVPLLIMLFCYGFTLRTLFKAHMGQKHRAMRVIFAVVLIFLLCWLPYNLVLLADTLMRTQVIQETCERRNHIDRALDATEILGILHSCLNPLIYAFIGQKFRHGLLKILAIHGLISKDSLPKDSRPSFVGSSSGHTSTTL
"IC50 (human neutrophils, 25 nM GROα)",SMILES,IC50
1.15 ± 0.47 µM,O=C(CSc1ccc(C(=O)Nc2ccc(F)cc2)cn1)c1ccc(-c2nn[nH]n2)cc1 [Compound 104],–
0.689 ± 0.23 µM,O=C(Nc1ccc(F)cc1)c1ccc(SCCCCB(O)O)nc1 [Compound 10],–
1.48 ± 0.49 µM,O=C(Nc1ccc(F)cc1)c1ccc(SCc2ccccc2C(=O)O)nc1 [Compound 24],–
> 10 µM,O=C(Nc1ccc(F)cc1)c1ccc(SCc2ccc3nsnc3c2)nc1 [Compound 62],–
0.216 ± 0.066 µM,O=C(Nc1ccc(F)cc1)c1ccc(SCc2ccc3nonc3c2)nc1 [Compound 65],–
> 5 µM,Cc1ccc(C(=O)CSc2ccc(C(=O)Nc3ccc(F)cc3)cn2)c(C)c1 [Compound 87],–
> 10 µM,O=C(Nc1ccc(F)cc1)c1ccc(SCC2CCOCC2)nc1 [Compound 77],–
> 5 µM,Cc1cc(C(=O)CSc2ccc(C(=O)Nc3ccc(F)cc3)cn2)ccc1Cl [Compound 92],–
0.542 ± 0.104 µM,O=C(Nc1ccc(F)cc1)c1ccc(SCC2CCCO2)nc1 (centres unmarked) [Compound 76],–
0.294 ± 0.119 µM,O=C(Nc1ccc(F)cn1)c1ccc(SCc2ccccc2B(O)O)nc1 [Compound 164],–
> 5 µM,O=C(Nc1ccc(F)cc1)c1ccc(SCC(=O)c2cc(-c3ccccc3)no2)nc1 [Compound 133],–
> 10 µM,O=C(Nc1ccc(F)cc1)c1ccc(SCc2nc3ccccc3s2)nc1 [Compound 68],–
> 10 µM,O=C(Nc1ccc(F)cc1)c1ccc(SCc2csc3ccc(Cl)cc23)nc1 [Compound 69],–
0.037 ± 0.007 µM,O=C(Nc1ccc(F)cc1O)c1ccc(SCc2ccccc2B(O)O)nc1 [Compound 165],–
> 10 µM,O=C(CSc1ccc(C(=O)Nc2ccc(F)cc2)cn1)c1cc(C(F)(F)F)cc(C(F)(F)F)c1 [Compound 110],–
0.105 ± 0.044 µM,O=C(Nc1ccc(O)cc1)c1ccc(SCc2ccccc2B(O)O)nc1 [Compound 163],–
> 10 µM,O=C(Nc1ccc(F)cc1)c1ccc(SCC(=O)c2cc(-c3ccc(Cl)c(Cl)c3)no2)nc1 [Compound 135],–
> 5 µM,O=C(Nc1ccc(F)cc1)c1ccc(SCC(=O)c2cccs2)nc1 [Compound 122],–
> 10 µM,O=C(Nc1ccc(F)cc1)c1ccc(SCC(=O)c2ccccn2)nc1 [Compound 113],–

"IC50 (human neutrophils, 25 nM GROα)",SMILES,IC50
> 5 µM,O=C(Nc1ccc(F)cc1)c1ccc(SCc2cc([N+](=O)[O-])ccc2O)nc1 [Compound 40],–
3.9 ± 1.2 µM,O=C(Nc1ccc(F)cc1)c1ccc(SCc2nn[nH]n2)nc1 [Compound 49],–
> 5 µM,N#Cc1cccc(C(=O)CSc2ccc(C(=O)Nc3ccc(F)cc3)cn2)c1 [Compound 103],–
> 10 µM,CS(=O)(=O)c1ccc(C(=O)CSc2ccc(C(=O)Nc3ccc(F)cc3)cn2)cc1 [Compound 105],–
> 10 µM,Nc1nc(N)c2nc(CSc3ccc(C(=O)Nc4ccc(F)cc4)cn3)cnc2n1 [Compound 57],–
> 10 µM,O=C(Nc1ccc(F)cc1)c1ccc(SCC(=O)c2cc3ccccc3o2)nc1 [Compound 120],–
> 10 µM,O=C(Nc1ccc(F)cc1)c1ccc(SCC(=O)c2cccc3c2OCCCO3)nc1 [Compound 143],–
0.072 ± 0.007 µM,"CC1(C)OB(c2ccc(OC(F)(F)F)cc2CSc2ccc(C(=O)Nc3ccc(F)cc3)cn2)OC1(C)C [Compound 19, 6-(2-boronic pinacol ester-5-trifluoromethoxy-benzylsulfanyl)-N-(4-fluoro-phenyl)-nicotinamide]",–
> 10 µM,O=C(Nc1ccc(F)cc1)c1ccc(SCc2ccc([N+](=O)[O-])cc2)nc1 [Compound 39],–
0.89 ± 0.67 µM,O=C(c1ccc(SCc2ccccc2B(O)O)nc1)N(Cc1ccncc1)c1ccc(F)cc1 [Compound 157],–
> 5 µM,O=C(Nc1ccc(F)cc1)c1ccc(SCC(=O)c2csc3ccccc23)nc1 [Compound 126],–
0.76 µM,O=C(Nc1ccc(F)cc1)c1ccc(SCC2COc3ccccc3O2)nc1 (centres unmarked) [Compound 51],–
> 10 µM,O=C(CSc1ccc(C(=O)Nc2ccc(F)cc2)cn1)c1ccc2sccc2c1 [Compound 125],–
> 5 µM,CC1(C)CCC(C)(C)c2cc(C(=O)CSc3ccc(C(=O)Nc4ccc(F)cc4)cn3)ccc21 [Compound 111],–
> 10 µM,O=C(Nc1ccc(F)cc1)c1ccc(SCc2ccc(-c3ccsc3)cc2)nc1 [Compound 29],–
> 10 µM,O=C(Nc1ccc(F)cc1)c1ccc(SCC(=O)c2cc(-c3ccc(Cl)cc3)no2)nc1 [Compound 134],–
> 5 µM,O=C(Nc1ccc(F)cc1)c1ccc(SCC(=O)c2cccc3c2OCCO3)nc1 [Compound 141],–
> 10 µM,CCCCCc1ccc(C(=O)CSc2ccc(C(=O)Nc3ccc(F)cc3)cn2)cc1 [Compound 97],–
> 5 µM,Cc1onc(-c2ccccc2)c1C(=O)CSc1ccc(C(=O)Nc2ccc(F)cc2)cn1 [Compound 131],–

"IC50 (human neutrophils, 25 nM GROα)",SMILES,IC50
0.703 ± 0.291 µM,Cn1c(C(=O)CSc2ccc(C(=O)Nc3ccc(F)cc3)cn2)nc2ccccc21 [Compound 151],–
3.69 ± 0.72 µM,CCc1cc2c(cc1C(=O)CSc1ccc(C(=O)Nc3ccc(F)cc3)cn1)C(C)(C)CCC2(C)C [Compound 112],–
1.61 µM,O=C(Nc1ccc(F)cc1)c1ccc(SCc2ccc(Cl)c(Cl)c2)nc1 [Compound 27],–
0.899 ± 0.15 µM,O=C(Nc1ccc(F)cc1)c1ccc(SCc2ccc(B(O)O)cc2)nc1 [Compound 8],–
> 5 µM,O=C(Nc1ccc(F)cc1)c1ccc(SCc2cccc3cccnc23)nc1 [Compound 53],–
> 5 µM,O=C(CSc1ccc(C(=O)Nc2ccc(F)cc2)cn1)c1ccc2c(c1)OCCCO2 [Compound 142],–
> 5 µM,O=C(Nc1ccc(F)cc1)c1ccc(SCc2cc3ccccc3n2S(=O)(=O)c2ccccc2)nc1 [Compound 79],–
> 10 µM,Cc1nc(-c2cnccn2)sc1C(=O)CSc1ccc(C(=O)Nc2ccc(F)cc2)cn1 [Compound 149],–
0.759 ± 0.19 µM,COC(=O)c1ccccc1CSc1ccc(C(=O)Nc2ccc(F)cc2)cn1 [Compound 21],–
> 10 µM,O=C(CSc1ccc(C(=O)Nc2ccc(F)cc2)cn1)c1ccc(OC(F)(F)F)cc1 [Compound 106],–
0.278 ± 0.148 µM,O=C(Nc1ccc(OC(F)(F)F)cc1)c1ccc(SCc2ccccc2B(O)O)nc1 [Compound 159],–
> 10 µM,O=C(Nc1ccc(F)cc1)c1ccc(SCCOc2ccccc2)nc1 [Compound 72],–
2.12 ± 0.74 µM,O=C(O)c1cccc(CSc2ccc(C(=O)Nc3ccc(F)cc3)cn2)c1 [Compound 25],–
> 10 µM,O=C(CSc1ccc(C(=O)Nc2ccc(F)cc2)cn1)c1cccc(F)c1 [Compound 91],–
0.35 µM,O=C(Nc1ccc(F)cc1)c1ccc(SCc2cccc3c2OCCCO3)nc1 [Compound 50],–
1.58 µM,O=C(Nc1ccc(F)cc1)c1ccc(SCCOc2cccc3c2OCCO3)nc1 [Compound 52],–
> 10 µM,Cn1c(CSc2ccc(C(=O)Nc3ccc(F)cc3)cn2)nc2ccccc21 [Compound 67],–
–,O=C(CSc1ccc(C(=O)Nc2ccc(F)cc2)cn1)c1ccc([N+](=O)[O-])cc1 [Compound 101],> 10 µM

SMILES,"IC50 (human neutrophils, 25 nM GROα)",IC50
COC(=O)c1ccc(CSc2ccc(C(=O)Nc3ccc(F)cc3)cn2)cc1 [Compound 23],> 10 µM,–
Cc1nc(-c2ccc(C(F)(F)F)cc2)sc1CSc1ccc(C(=O)Nc2ccc(F)cc2)cn1 [Compound 71],> 10 µM,–
O=C(Nc1ccc(F)cc1)c1ccc(SCc2ccc(OC(F)(F)F)cc2)nc1 [Compound 41],> 10 µM,–
O=C(Nc1ccc(-c2nn[nH]n2)cc1)c1ccc(SCc2ccccc2B(O)O)nc1 [Compound 161],> 10 µM,–
CCOP(=O)(CSc1ccc(C(=O)Nc2ccc(F)cc2)cn1)OCC [Compound 82],> 10 µM,–
O=C(Nc1ccc(F)cc1)c1ccc(SCc2ccc(C(F)(F)F)o2)nc1 [Compound 74],> 5 µM,–
Cc1cc(CSc2ccc(C(=O)Nc3ccc(F)cc3)cn2)no1 [Compound 44],> 5 µM,–
Cc1nc(-c2cccc(CSc3ccc(C(=O)Nc4ccc(F)cc4)cn3)c2)no1 [Compound 35],> 10 µM,–
Cc1nc(-c2ccc(CSc3ccc(C(=O)Nc4ccc(F)cc4)cn3)cc2)cs1 [Compound 36],> 10 µM,–
Cc1onc(-c2ccccc2)c1CSc1ccc(C(=O)Nc2ccc(F)cc2)cn1 [Compound 45],> 5 µM,–
Cc1cccc(CSc2ccc(C(=O)Nc3ccc(F)cc3)cn2)c1F [Compound 28],> 10 µM,–
O=C(CSc1ccc(C(=O)Nc2ccc(F)cc2)cn1)c1ccc2c(c1)OCO2 [Compound 139],> 5 µM,–
Cc1noc(-c2ccccc2)c1CSc1ccc(C(=O)Nc2ccc(F)cc2)cn1 [Compound 46],> 10 µM,–
O=C(c1ccc(SCc2ccccc2B(O)O)nc1)N(CC1CCCCN1)c1ccc(F)cc1 (centres unmarked) [Compound 156],> 5 µM,–
O=C(Nc1ccc(F)cc1)c1ccc(SCc2ccc(-n3cncn3)cc2)nc1 [Compound 33],> 10 µM,–

# From US8981106B2, “Pyrimidinecarboxamides as CXCR2 modulators” (Syntrix Biosystems, Inc., priority 2009, dated 2015)
